Values of other authors in patent publication US10500232B2, “Small molecule cellular reprogramming to generate neuronal cells” (The J. David Gladstone Institutes, a testamentary trust …, priority 2013, dated 2019).

Target: mGlu4 (Homo sapiens, UniProt Q14833)
Conditions: read-out: EC50 against mGlu4; cited from earlier work

mGlu4, sequence (Q14833 33-912): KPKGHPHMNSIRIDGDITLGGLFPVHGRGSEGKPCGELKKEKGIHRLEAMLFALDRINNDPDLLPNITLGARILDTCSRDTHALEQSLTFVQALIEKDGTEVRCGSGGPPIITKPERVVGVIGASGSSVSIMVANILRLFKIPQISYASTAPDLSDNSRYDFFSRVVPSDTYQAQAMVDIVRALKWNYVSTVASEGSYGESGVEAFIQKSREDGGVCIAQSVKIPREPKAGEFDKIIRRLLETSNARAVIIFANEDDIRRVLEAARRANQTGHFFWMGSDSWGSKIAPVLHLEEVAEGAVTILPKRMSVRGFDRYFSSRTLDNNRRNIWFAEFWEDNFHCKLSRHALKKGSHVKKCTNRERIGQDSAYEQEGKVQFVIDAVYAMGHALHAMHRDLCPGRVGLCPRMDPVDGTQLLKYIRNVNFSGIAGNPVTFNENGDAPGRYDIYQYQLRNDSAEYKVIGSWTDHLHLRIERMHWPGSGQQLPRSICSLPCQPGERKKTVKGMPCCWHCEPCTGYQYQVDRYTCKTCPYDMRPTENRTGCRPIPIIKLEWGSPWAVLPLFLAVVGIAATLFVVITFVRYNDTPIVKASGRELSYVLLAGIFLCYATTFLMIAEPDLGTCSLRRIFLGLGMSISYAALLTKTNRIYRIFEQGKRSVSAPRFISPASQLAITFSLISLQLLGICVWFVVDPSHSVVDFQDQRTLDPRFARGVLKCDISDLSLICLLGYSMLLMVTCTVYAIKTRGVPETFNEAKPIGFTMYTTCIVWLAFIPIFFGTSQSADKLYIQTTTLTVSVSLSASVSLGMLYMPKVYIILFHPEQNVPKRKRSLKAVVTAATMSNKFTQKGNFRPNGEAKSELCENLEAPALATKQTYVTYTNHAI

COc1cc(NC(=O)c2ccccn2)ccc1Cl [ML128, N-(4-chloro-3-methoxyphenyl)pyridine-2-carboxamide]
EC50: 200 to 2300 nM
